Like-named read-outs stand apart in the source and are kept apart here. Non-standard residues stand in square brackets, D forms with d. Residues, ends and D or L forms follow the SMILES beside them. dTrp(2-Me) = Cc1[nH]c2ccccc2c1C[C@@H](N)C(=O)O
Experiments:
serine protease = test system: serine protease; design: method as in PMID 9643439, PMID 11578108; settings: rat, pefabloc SC at 0.3 mg/mL; cited from earlier work
Caco-2 model = test system: Caco-2 model; design: method as in PMID 11578108; settings: cited from earlier work
colonic = settings: cited from earlier work
rat intestine = settings: cited from earlier work; for effect on permeation of small model drugs: caprate at 2 and 5 mg/mL
intestinal lumen = test system: intestinal lumen; design: method as in PMID 29758344; settings: caprate dose of 11.4 mg/mL, formulation pH 6.5 and 7.4; cited from earlier work
[1] = rat, in vivo, iv
Protocol: (§1) Blood samples of <0.3 mL were collected from the femoral artery for a maximum volume of 4 mL during each experiment. All sampled blood volumes were replaced by an equivalent volume of saline (0.9% NaCl) containing 70 mg/mL bovine serum albumin. For the intravenous administration, blood was sampled over 6 h (at 5, 10, 20, 40, 60, 90 min and at 2, 4, and 6 h). […] The blood samples were put on ice and centrifuged (5000× g, 3 min at 4 °C) within 10 min of sampling; 100 μL of the plasma was transferred to 0.5 mL micro tubes and stored at −80 °C until analysis.
(§2) Plasma CL values were derived from the two-compartment analysis of the intravenous plasma data and an assumed rat liver blood flow of 47 mL/min/kg [24].
(§3) The plate was vortex-mixed for 10 min (pulse 1200) after which it was centrifuged for 10 min at 2862× g. The supernatants were then injected into the UHPLC-MS/MS system. The column used was an Acquity UPLC Peptide BEH C18 (50 × 2.1 mm length × inner diameter, 1.7 µm particle size) from Waters Corp. (Milford, MA, USA). The mobile phase consisted of (A) 0.1% formic acid in water and (B) 0.1% formic acid in acetonitrile. Gradient elution was initially 2.0% B for 0.50 min, with a linear increase to 90% B for 1.5 min, held constant at 90% B for 0.30 min, then back to 2.0% B in 0.30 min, and constant again at 2.0% B for 0.40 min. The total run time was 3.0 min.

in vivo = settings: rat, iv
Protocol: as §1, §2, §3

[2] = cited from earlier work; for Log D6.5: pH 6.5; for Log D7.4: pH 7.4
[3] = Single-pass intestinal perfusion (SPIP), jejunal lumen-to-blood effective permeability (Peff); settings: male, Wistar Han, rat, other: single-pass jejunal perfusion
Protocol: (§4) In short, male Wistar Han rats (strain 273) from Charles River Co. (Cologne, Germany), weight 270–363 g, were used. On the study day, the rats were anesthetized using an intraperitoneal injection of a 5% w/v thiobutabarbital solution (180 mg/kg). Body temperature was maintained at 37.5 ± 0.5 °C. To validate the condition of the animal, the systemic arterial blood pressure was continuously recorded by connecting the arterial catheter to a transducer operating a PowerLab system (AD Instruments, Hastings, UK).
(§5) At the SPIP experiment, the abdomen was opened along the midline and a jejunal segment of 10–15 cm was cannulated, covered with polyethylene wrap, and placed outside the abdomen. The bile duct was cannulated to avoid pancreaticobiliary secretion into the duodenum. […] During the first 30 min following surgery, each intestinal segment was single-passed perfused with 37 °C phosphate buffered saline (6 mM, pH 6.5 or 7.4). […] The length of the intestinal segment was measured after the jejunal cannulation as was the wet tissue weight of the segment after the experiment. The perfusion rate was at all times 0.2 mL/min (peristaltic pump, Gilson Minipuls 3, Le Bel, France).
(§6) Each perfusate experiment was divided into two parts. […] The 10 and 20 mg/mL concentrations (suspensions) were used to evaluate if concentrations above saturation had any impact on membrane permeability.
(§7) The five experiments were designed such that each rat was its own control. The experimental period started with a rapid filling (<30 s) of the whole segment with the perfusate (about 1.5 mL for a 10 cm segment). The intestinal segment and perfusates were kept at 37 °C, and all outgoing perfusate was collected and weighed at 15-min intervals.
(§8) In short, an input rate was acquired by deconvolution of the plasma concentration–time profiles following the intestinal perfusion. […] From the input rate, an absorption rate was then calculated by compensating for first-pass extraction (Ffirstpass) of each compound in the rat intestine and liver. […] Plasma CL values were derived from the two-compartment analysis of the intravenous plasma data and an assumed rat liver blood flow of 47 mL/min/kg [24]. The Peff (cm/s) was then calculated by relating the absorption rate to the intestinal luminal area using Equation (2):(2) Peff=absorption rate/A × C where A is the area of the exposed intestinal segment described as a smooth cylinder with a radius of 0.2 cm and C is the concentration entering the luminal segment. Peff was evaluated from 0 to 135 min, and the mean Peff value of the two perfusion periods (60-min control and 75-min test) was regarded as representative for each individual rat.
(§9) Peff and CLCr-EDTA values, are expressed as the mean ± standard deviation (SD) or standard error of the mean (SEM). […]

[4] = dog, in vivo, po, 600 mg; cited from earlier work
[5] = rat, in vivo, iv; remark: listed apart in the source
Protocol: as §1, §2, §3

[6] = rat
Protocol: as §4, §5, §6, §7, §8, §9

jejunal segment [7] = settings: rat
Protocol: as §4, §5, §6, §7, §8, §9

rat liver = settings: in vivo; cited from earlier work
jejunal segment [8] = assay: Blood-to-lumen jejunal 51Cr-EDTA clearance (CLCr-EDTA) during SPIP
Protocol: as §5
Luminal perfusates and blood plasma at 0 and 135 min were analyzed for ^51Cr activity (cpm) in a gamma counter (1282 Compugamma CS, Pharmacia AB, Uppsala, Sweden). A linear regression analysis of the plasma samples was made to obtain a corresponding plasma value for each perfusate sample. […] CLCr-EDTA was determined during the last 45 min for the control solution and during the last 60 min for the test solutions (the first 15 min in each period was for equilibration). […]
as §9

jejunal segment [9] = assay: Single-pass intestinal perfusion (SPIP), jejunal lumen-to-blood effective permeability (Peff); settings: any investigated luminal concentration: SDS 5 mg/mL; caprate 5, 10, 20 mg/mL
Protocol: as §4, §5, §6, §7, §8, §9

[10] = n-octanol-water, source not given

## Cl.NCCc1ccc(S(=O)(=O)F)cc1 [pefabloc SC]
Serine protease
  inhibition of intestinal degradation of hexarelin: completely inhibits

## CCCCCCCCCC(=O)[O-].[Na+] [caprate, sodium caprate]
Caco-2 model
  increase of apparent permeability of hexarelin: over 200 fold
colonic; 4 mg/mL caprate, rectal perfusion study
  effect of caprate when pH was increased from 6.5 to 7.4: increased
colonic
  human colonic Peff: 1.4 ± 0.4 × 10^−4 cm/s
Rat intestine; caprate at 2 mg/mL, rat jejunal SPIP
  absorption-enhancing effect on small low permeability model compounds: did not observe any absorption-enhancing effect
Rat intestine; rat SPIP model
  effective caprate concentrations: 4 to 20 mg/mL
Rat intestine; rat SPIP, SDS at 5 mg/mL
  effect on permeation of small model drugs: does not
Intestinal lumen
  absorption-enhancing effect: no effect

## C[C@H](N[C@@H](CCc1ccccc1)C(=O)O)C(=O)N1CCC[C@H]1C(=O)O [enalaprilat]
[1]
  C1 (intercept of first term): 428.6 (449.1/408.0) nM
  C2 (intercept of second term): 87.7 (105.5/70.0) nM
  λ1 (slope of first term): 3.9 (4.6/3.3) h^−1
  λ2 (slope of second term): 0.38 (0.45/0.31) h^−1
Rat intestine; rat SPIP
  basal permeability: 1.1 ×10⁻⁶ cm/s
In vivo
  clearance: 3 mL/min
[2]; [10]
  Log D6.5: −1.0
  Log D7.4: −1.0
[3]
  Papp at 100 µM: 1.3 ± 0.9 ×10⁻⁶ cm/s

## CC(C(=O)O)c1cccc(C(=O)c2ccccc2)c1 (centres unmarked) [ketoprofen]
Rat intestine; rat SPIP
  basal permeability: 160 ×10⁻⁶ cm/s

## semaglutide
[4]
  bioavailability: 0.29%

## Cc1[nH]c2ccccc2c1C[C@@H](NC(=O)[C@@H](N)Cc1cnc[nH]1)C(=O)N[C@@H](C)C(=O)N[C@@H](Cc1c[nH]c2ccccc12)C(=O)N[C@H](Cc1ccccc1)C(=O)N[C@@H](CCCCN)C(N)=O [hexarelin] (H-H[dTrp(2-Me)]AW[dF]K-NH2)
[5]
  clearance: 10.3 mL/min
[6]
  Papp: 0.19 ± 0.14 ×10⁻⁶ cm/s
[1]
  C1 (intercept of first term): 355.2 (416.9/293.5) nM
  C2 (intercept of second term): 133.7 (149.1/118.3) nM
  λ1 (slope of first term): 13.7 (17.5/10.0) h^−1
  λ2 (slope of second term): 2.08 (2.26/1.91) h^−1
Jejunal segment [7]
  permeability at pH 6.5 compared to pH 7.4: lower at pH 6.5 compared to pH 7.4
[2]
  Log D6.5: −3.40
  Log D7.4: −2.26
Rat liver
  Ffirstpass (first-pass extraction): 0.63

## CCCCCCCCCCCCOS(=O)(=O)[O-].[Na+] [SDS, sodium dodecyl sulfate]
Rat intestine; SDS at 5 mg/mL, pH 6.5 vs. 7.4
  pH dependence of the effect on the permeability of enalaprilat and CLCr-EDTA: unaffected by pH
Rat intestine; SDS at 5 mg/mL, rat SPIP
  increase of absorption of atenolol: 10 fold
  increase of absorption of enalaprilat: 40 fold
  increase of absorption of ketoprofen: not at all
Rat intestine; SPIP model, acyclovir, atenolol, enalaprilat, phenol red
  effect on lumen-to-blood transport of four low permeation model compounds and on CLCr-EDTA: increase the lumen-to-blood transport
Rat intestine; rat SPIP, SDS at 5 mg/mL
  effect on permeation of small model drugs: increases permeation in both absorptive and secretory directions
Jejunal segment [8]; permeation enhancer at 5 mg/mL, pH 7.4, solution
  CLCr-EDTA ratio (test vs. control period): significant increase
Jejunal segment [9]
  effect on hexarelin absorption (Peff ratio of hexarelin): Neither SDS nor caprate at any of the investigated luminal concentrations enhanced absorption

## O=C([O-])CN(CCN(CC(=O)[O-])CC(=O)[O-])CC(=O)[O-].[51Cr+3] [^51Cr-EDTA, ^51Chromium-labeled ethylenediaminetetraacetate]
Jejunal segment [8]; control solution, mean ± SD, n = 24
  CLCr-EDTA (blood-to-lumen clearance): 0.092 ± 0.039 mL/min/100 g

Source: publication PMC7076382 (Pharmaceutics, 2020)
